Key:
FGFR3 = target: T1, FGFR3 (Homo sapiens, UniProt P22607); assay: FGFR3 in vitro kinase inhibitory activity assay (TRF); type: biochemical; details: 8 μM ATP, 3 hours; read-out: FGFR3 IC50(μM) or % I
T1 construct: purchased Upstate

VEGFR2 = target: T2, VEGFR2 (Homo sapiens, UniProt P35968); assay: VEGFR2 in vitro kinase inhibitory activity assay (TRF); type: biochemical; details: 0.5 μM ATP, 1 hour; read-out: VEGFR2 IC50(μM) or % I
T2 construct: purchased Upstate

[1] = system: parental wild-type Ba/F3 cells; assay: Ba/F3 (WT) cell proliferation assay (Alamar Blue); type: cell-based; details: BaF3, 72 hours, read-out: BaF3 WT prolif; for inhibition at 10 µM / inhibition at 3 µM: Mus musculus; for IC50: with mouse IL-3
Procedure, shortened: (§1)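 Ba/F3-TEL-FGFR3 cells (5×10^3/well, G418) and parental Ba/F3 (2.5×10^3/well, 2 ng/ml mouse IL-3) in RPMI/10% FBS, plated overnight, then compound for 72 h at 0.1% DMSO final. Alamar Blue 4-6 h, fluorescence 535/590 nm; IC50 where inhibition high.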

Ba/F3-TEL-FGFR3 cells = target: T3, Ba/F3-TEL-FGFR3 cells (Homo sapiens, UniProt P22607); assay: Ba/F3-TEL-FGFR3 cell proliferation assay (Alamar Blue); type: cell-based; details: 72 hours; for GI50: read-out: BaF3-TEL-FGFR3 prolif; for BaF3-TEL-FGFR3 prolif (μM): % at 10.0 μM
T3 construct: fused on or other part: P41212 (Transcription factor ETV6)
T3 sequence (P22607 whole entry, change not shown, the tested form may be a part): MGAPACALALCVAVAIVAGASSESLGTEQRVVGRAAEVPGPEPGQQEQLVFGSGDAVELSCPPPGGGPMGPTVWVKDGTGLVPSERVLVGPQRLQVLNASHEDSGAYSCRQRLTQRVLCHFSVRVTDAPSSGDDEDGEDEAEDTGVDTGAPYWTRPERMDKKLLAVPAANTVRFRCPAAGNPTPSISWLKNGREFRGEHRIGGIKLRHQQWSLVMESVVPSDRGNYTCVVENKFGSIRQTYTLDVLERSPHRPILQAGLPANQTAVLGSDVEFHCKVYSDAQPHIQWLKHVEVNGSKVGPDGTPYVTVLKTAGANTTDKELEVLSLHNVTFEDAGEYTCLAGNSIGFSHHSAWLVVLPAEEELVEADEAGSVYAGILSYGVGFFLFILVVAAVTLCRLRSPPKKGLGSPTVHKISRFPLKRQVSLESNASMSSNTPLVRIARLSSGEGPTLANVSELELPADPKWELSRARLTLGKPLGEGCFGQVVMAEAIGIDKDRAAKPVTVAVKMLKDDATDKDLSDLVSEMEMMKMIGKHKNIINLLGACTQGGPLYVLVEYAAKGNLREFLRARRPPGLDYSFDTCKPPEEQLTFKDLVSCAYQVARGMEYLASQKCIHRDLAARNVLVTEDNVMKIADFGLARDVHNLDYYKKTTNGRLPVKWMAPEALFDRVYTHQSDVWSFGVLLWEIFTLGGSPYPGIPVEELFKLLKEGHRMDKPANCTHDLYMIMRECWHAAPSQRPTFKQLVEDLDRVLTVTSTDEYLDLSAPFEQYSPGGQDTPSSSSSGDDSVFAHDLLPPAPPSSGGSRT
Procedure, shortened: as §1

T1 sequence (P22607 23-806): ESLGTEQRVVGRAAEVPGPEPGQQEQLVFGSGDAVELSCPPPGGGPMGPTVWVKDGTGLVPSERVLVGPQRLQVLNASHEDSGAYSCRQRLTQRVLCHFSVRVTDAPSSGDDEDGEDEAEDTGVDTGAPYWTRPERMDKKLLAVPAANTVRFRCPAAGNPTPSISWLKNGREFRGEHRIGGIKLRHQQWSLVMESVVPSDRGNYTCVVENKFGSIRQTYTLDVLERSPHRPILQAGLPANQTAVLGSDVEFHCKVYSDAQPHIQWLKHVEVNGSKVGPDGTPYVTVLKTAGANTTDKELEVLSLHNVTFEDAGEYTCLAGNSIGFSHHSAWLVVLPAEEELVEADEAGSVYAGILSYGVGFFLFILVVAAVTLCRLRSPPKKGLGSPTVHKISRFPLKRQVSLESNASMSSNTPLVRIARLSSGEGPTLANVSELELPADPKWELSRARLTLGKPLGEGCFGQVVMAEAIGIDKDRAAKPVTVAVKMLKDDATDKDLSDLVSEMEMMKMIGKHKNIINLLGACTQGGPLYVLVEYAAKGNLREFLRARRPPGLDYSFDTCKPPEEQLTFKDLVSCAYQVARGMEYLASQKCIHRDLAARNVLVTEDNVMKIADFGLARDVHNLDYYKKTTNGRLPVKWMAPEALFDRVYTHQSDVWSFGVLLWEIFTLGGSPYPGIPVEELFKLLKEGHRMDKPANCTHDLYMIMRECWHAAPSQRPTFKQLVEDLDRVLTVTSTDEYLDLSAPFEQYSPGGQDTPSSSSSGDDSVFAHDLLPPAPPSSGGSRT
T2 sequence (P35968 20-1356): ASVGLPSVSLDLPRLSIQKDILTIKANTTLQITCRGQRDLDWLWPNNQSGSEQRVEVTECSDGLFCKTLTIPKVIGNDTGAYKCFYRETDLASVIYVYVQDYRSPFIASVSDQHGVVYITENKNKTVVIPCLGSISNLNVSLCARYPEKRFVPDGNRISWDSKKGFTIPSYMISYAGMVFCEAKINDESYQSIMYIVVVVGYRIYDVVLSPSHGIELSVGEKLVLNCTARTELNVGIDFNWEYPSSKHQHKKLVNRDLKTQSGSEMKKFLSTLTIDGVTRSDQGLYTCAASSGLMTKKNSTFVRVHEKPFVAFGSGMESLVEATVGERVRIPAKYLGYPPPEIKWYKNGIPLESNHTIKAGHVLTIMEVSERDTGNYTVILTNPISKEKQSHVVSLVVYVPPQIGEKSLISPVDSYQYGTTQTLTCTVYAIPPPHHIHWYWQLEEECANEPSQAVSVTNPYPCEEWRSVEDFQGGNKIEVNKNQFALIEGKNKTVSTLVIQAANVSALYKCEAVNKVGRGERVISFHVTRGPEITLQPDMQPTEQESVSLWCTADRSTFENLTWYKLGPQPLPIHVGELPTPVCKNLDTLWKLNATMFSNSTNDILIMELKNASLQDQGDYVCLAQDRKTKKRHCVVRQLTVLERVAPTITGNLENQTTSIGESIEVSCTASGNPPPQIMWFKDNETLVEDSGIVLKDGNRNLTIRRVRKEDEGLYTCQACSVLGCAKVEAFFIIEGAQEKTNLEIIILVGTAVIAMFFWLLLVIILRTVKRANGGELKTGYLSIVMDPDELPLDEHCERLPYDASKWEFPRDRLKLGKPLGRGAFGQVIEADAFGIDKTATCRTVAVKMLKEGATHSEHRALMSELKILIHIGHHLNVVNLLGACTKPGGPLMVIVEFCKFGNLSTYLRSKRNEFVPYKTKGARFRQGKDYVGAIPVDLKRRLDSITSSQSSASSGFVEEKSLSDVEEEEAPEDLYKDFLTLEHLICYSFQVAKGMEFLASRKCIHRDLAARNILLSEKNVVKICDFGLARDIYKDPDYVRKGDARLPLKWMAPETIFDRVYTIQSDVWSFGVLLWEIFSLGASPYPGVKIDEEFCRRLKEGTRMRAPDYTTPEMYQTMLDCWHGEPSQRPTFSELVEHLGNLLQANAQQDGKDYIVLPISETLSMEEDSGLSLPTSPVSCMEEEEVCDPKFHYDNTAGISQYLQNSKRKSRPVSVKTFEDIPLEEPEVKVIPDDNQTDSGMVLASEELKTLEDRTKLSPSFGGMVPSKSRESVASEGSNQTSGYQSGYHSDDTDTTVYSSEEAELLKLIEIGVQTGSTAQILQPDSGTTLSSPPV

Compound: C/C(=N\O)c1ccn2c(-c3cccc(NC(=O)NCC(F)(F)F)c3)cnc2c1 [Compound 1-21, 1-[3-(7-{1-Hydroxyimino-ethyl}-imidazo[1,2-a]pyridin-3-yl)-phenyl]-3-(2,2,2-trifluoro-ethyl)-urea]
- IC50 (FGFR3): 0.0019 µM
- IC50 (VEGFR2): 0.03 µM
- inhibition at 10 µM [1]: 17%
- GI50 (Ba/F3-TEL-FGFR3 cells): 46 nM

Compound: COCCNCCON=Cc1ccn2c(-c3cccc(NC(=O)NCC(F)(F)F)c3)cnc2c1 [Compound 1-53, 1-[3-(7-{[2-(2-Methoxy-ethylamino)-ethoxyimino]-methyl}-imidazo[1,2-a]pyridin-3-yl)-phenyl]-3-(2,2,2-trifluoro-ethyl)-urea]
- IC50 (FGFR3): 0.035 µM
- IC50 (VEGFR2): 0.81 µM
- IC50 [1]: 13000 nM
- GI50 (Ba/F3-TEL-FGFR3 cells): 480 nM

Compound: O=C(NCC(F)(F)F)Nc1cccc(-c2cnc3cc(C=NOCCCN4CCCC4)ccn23)c1 [Compound 1-35, 1-(3-{7-[(3-Pyrrolidin-1-yl-propoxyimino)-methyl]-imidazo[1,2-a]pyridin-3-yl}-phenyl)-3-(2,2,2-trifluoro-ethyl)-urea]
- IC50 (FGFR3): 0.023 µM
- IC50 (VEGFR2): 0.33 µM
- inhibition at 3 µM [1]: 28%
- GI50 (Ba/F3-TEL-FGFR3 cells): 560 nM

Compound: O=C(NCC(F)(F)F)Nc1cccc(-c2cnc3cc(C(CC4CC4)=NO)ccn23)c1 [Compound 1-30, 1-[3-(7-{2-Cyclopropyl-1-hydroxyimino-ethyl}-imidazo[1,2-a]pyridin-3-yl)-phenyl]-3-(2,2,2-trifluoro-ethyl)-urea]
- IC50 (FGFR3): 0.019 µM
- IC50 (VEGFR2): 0.29 µM
- inhibition at 10 µM [1]: 20%
- BaF3-TEL-FGFR3 prolif (μM) (Ba/F3-TEL-FGFR3 cells): 43.0% at

Compound: COCCN1CCC(CCON=Cc2ccn3c(-c4cccc(NC(=O)NCC(F)(F)F)c4)cnc3c2)CC1 [Compound 1-48, 1-{3-[7-({2-[1-(2-Methoxy-ethyl)-piperidin-4-yl]-ethoxyimino}-methyl)-imidazo[1,2-a]pyridin-3-yl]-phenyl}-3-(2,2,2-trifluoro-ethyl)-urea]
- IC50 (FGFR3): 0.023 µM
- IC50 (VEGFR2): 0.4 µM
- IC50 [1]: 1800 nM
- GI50 (Ba/F3-TEL-FGFR3 cells): 600 nM

Compound: COCCN(CCON=Cc1ccn2c(-c3cccc(NC(=O)NCC(F)(F)F)c3)cnc2c1)Cc1ccccc1 [Compound 1-41, 1-{3-[7-({2-[Benzyl-(2-methoxy-ethyl)-amino]-ethoxyimino}-methyl)-imidazo[1,2-a]pyridin-3-yl]-phenyl}-3-(2,2,2-trifluoro-ethyl)-urea]
- IC50 (FGFR3): 0.0551 µM
- IC50 (VEGFR2): 1.79 µM
- IC50 [1]: 5900 nM
- GI50 (Ba/F3-TEL-FGFR3 cells): 860 nM

Compound: O=C(NCC(F)(F)F)Nc1cccc(-c2cnc3cc(C=NOCCCN4CCC(O)C4)ccn23)c1 (stereo not shown) [Compound 1-38, 1-[3-(7-{[3-(3-Hydroxy-pyrrolidin-1-yl)-propoxyimino]-methyl}-imidazo[1,2-a]pyridin-3-yl)-phenyl]-3-(2,2,2-trifluoro-ethyl)-urea]
- IC50 (FGFR3): 0.026 µM
- IC50 (VEGFR2): 0.39 µM
- inhibition at 10 µM [1]: 21%
- GI50 (Ba/F3-TEL-FGFR3 cells): 1800 nM

Compound: O=C(NCC(F)(F)F)Nc1cccc(-c2cnc3cc(C=NOCCOCCO)ccn23)c1 [Compound 1-7, 1-[3-(7-{[2-(2-Hydroxy-ethoxy)-ethoxyimino]-methyl}-imidazo[1,2-a]pyridin-3-yl)-phenyl]-3-(2,2,2-trifluoro-ethyl)-urea]
- IC50 (FGFR3): 0.0185 µM
- IC50 (VEGFR2): 0.584 µM
- inhibition at 3 µM [1]: 20%
- GI50 (Ba/F3-TEL-FGFR3 cells): 420 nM

Compound: CC(C)Oc1cc(NC(=O)NCC(F)(F)F)cc(-c2cnc3cc(/C(=N/O)C4CC4)ccn23)c1 [Compound 1-66, 1-[3-(7-{Cyclopropyl-[(E)-hydroxyimino]-methyl}-imidazo[1,2-a]pyridin-3-yl)-5-isopropoxy-phenyl]-3-(2,2,2-trifluoro-ethyl)-urea]
- IC50 (VEGFR2): 1.4 µM
- melting point: 222 to 223 °C

Compound: CN(C)CCON=Cc1ccn2c(-c3cccc(NC(=O)NCC(F)(F)F)c3)cnc2c1 [Compound 1-57, 1-(3-{7-[(2-Dimethylamino-ethoxyimino)-methyl]-imidazo[1,2-a]pyridin-3-yl}-phenyl)-3-(2,2,2-trifluoro-ethyl)-urea]
- IC50 (FGFR3): 0.029 µM
- IC50 (VEGFR2): 0.47 µM
- inhibition at 3 µM [1]: 30%
- GI50 (Ba/F3-TEL-FGFR3 cells): 250 nM

Compound: O=C(NCC(F)(F)F)Nc1cccc(-c2cnc3cc(C=NOCCCN4CCN(CCO)CC4)ccn23)c1 [Compound 1-39, 1-{3-[7-({3-[4-(2-Hydroxy-ethyl)-piperazin-1-yl]-propoxyimino}-methyl)-imidazo[1,2-a]pyridin-3-yl]-phenyl}-3-(2,2,2-trifluoro-ethyl)-urea]
- IC50 (FGFR3): 0.025 µM
- IC50 (VEGFR2): 0.39 µM
- inhibition at 3 µM [1]: 47%
- GI50 (Ba/F3-TEL-FGFR3 cells): 1300 nM

Compound: C/C(=N\OCCCO)c1ccn2c(-c3cccc(NC(=O)NCC(F)(F)F)c3)cnc2c1 [Compound 1-47, 1-[3-(7-{1-[3-Hydroxy-propoxyimino]-ethyl}-imidazo[1,2-a]pyridin-3-yl)-phenyl]-3-(2,2,2-trifluoro-ethyl)-urea]
- IC50 (FGFR3): 0.0023 µM
- IC50 (VEGFR2): 0.051 µM
- inhibition at 10 µM [1]: 63%
- BaF3-TEL-FGFR3 prolif (μM) (Ba/F3-TEL-FGFR3 cells): 0.000% at

Compound: O=C(NCC(F)(F)F)Nc1cccc(-c2cnc3cc(C=NOCc4ccc(Cl)s4)ccn23)c1 [Compound 1-8, 1-(3-{7-[(5-Chloro-thiophen-2-ylmethoxyimino)-methyl]-imidazo[1,2-a]pyridin-3-yl}-phenyl)-3-(2,2,2-trifluoro-ethyl)-urea]
- IC50 (FGFR3): 0.215 µM
- IC50 (VEGFR2): > 10 µM
- IC50 [1]: 828 nM
- GI50 (Ba/F3-TEL-FGFR3 cells): 17.5 nM

Compound: O=C(NCC(F)(F)F)Nc1cccc(-c2cnc3cc(C=NOc4ncccn4)ccn23)c1 [Compound 1-5, 1-(3-{7-[(Pyrimidin-2-yloxyimino)-methyl]-imidazo[1,2-a]pyridin-3-yl}-phenyl)-3-(2,2,2-trifluoro-ethyl)-urea]
- IC50 (FGFR3): 0.0313 µM
- IC50 (VEGFR2): 0.877 µM
- inhibition at 10 µM [1]: 10%
- GI50 (Ba/F3-TEL-FGFR3 cells): 2300 nM

Compound: N=C(N)Nc1nc(CON=Cc2ccn3c(-c4cccc(NC(=O)NCC(F)(F)F)c4)cnc3c2)cs1 [Compound 1-19, 1-(3-{7-[(2-Guanidino-thiazol-4-ylmethoxyimino)-methyl]-imidazo[1,2-a]pyridin-3-yl}-phenyl)-3-(2,2,2-trifluoro-ethyl)-urea]
- IC50 (FGFR3): 0.023 µM
- IC50 (VEGFR2): 0.67 µM
- IC50 [1]: 5200 nM
- GI50 (Ba/F3-TEL-FGFR3 cells): 2400 nM

From US8481531B2, “Bicyclic heterocyclyl derivatives as FGFR kinase inhibitors for therapeutic use” (Astex Therapeutics Ltd, priority 2009, dated 2013)
